Measurements reported in patent US8569288B2, “Thienotriazolodiazepine derivatives active on apo A” (CircoMed LLC, priority 2008, dated 2013).

Key:
[1] = test system: apo A1 secretion in human hepatocytes; test: Apo A1 secretion by human hepatocytes (ELISA of supernatant, normalised to cell protein); type: cell-based; conditions: for Apo A1 (ng secreted per mg cell protein), 1st / Apo A1 (ng secreted per mg cell protein), 2nd / Apo A1 (ng secreted per mg cell protein), mean: 3x24 h; for Apo A1 (ng secreted per mg cell protein), 1st: 1st parallel measurement; for Apo A1 (ng secreted per mg cell protein), 2nd: 2nd parallel measurement; for Apo A1 (ng secreted per mg cell protein), mean: mean of two measurements; for Stimulation of apo A1 secretion versus control level (in words): at concentrations as low as 3 μM, human hepatocytes
Description: Human hepatocytes were isolated from pieces of livers, obtained from donors which could not be used for transplantation, following the procedure described in U.S. Pat. No. 6,444,664. The cells were seeded on culture dishes at a density of 1.5×10^5 viable cells per cm^2 and were maintained for the first 24 h in 1.5 mL per 10 cm^2 of Williams E medium supplemented with 10% heat inactivated fetal calf serum (FCS), 2 mmol/L L-glutamine, 20 mU/mL insulin (135 nmol/L), 50 nmol/L dexamethasone, 100 U/mL penicillin, 100 μg/mL streptomycin and 100 μg/mL kanamycin at 37° C. in a 5% CO2/95% air atmosphere. After 14-16 h the non-adherent cells were washed from the plates, using the same culture medium as described above. 24 h after seeding, the incubations with the compounds were started in 1 mL of the same culture medium, but with an insulin concentration of 10 nmol/L instead of 135 nmol/L.
The human hepatocytes were treated with compounds 5, 6 and 7 (dissolved in DMSO, with the final concentration of DMSO not exceeding 0.1% v/v) at concentrations of 100 μM, 30 μM, 10 μM and 3 μM and incubated for 24 hours. The DMSO concentration in all samples and controls was 0.1%. The control wells contained DMSO (0.1% v/v) alone. The medium on the cells was removed and replaced with fresh medium with fresh compound and incubated for 24 hours. The medium was then again removed and replaced with fresh medium with fresh compound and incubated for another 24 hours. The supernatant was then removed from the cells and levels of apo A1 were determined using a commercially available ELISA (AlerCHEK™) with a HRP conjugated goat anti-apo A1 antibody and TMB/peroxidase substrate colour developer. Supernatants were diluted 1:4 with the wash buffer provided in the kit.
After the last incubation the cells were washed twice with PBS, and BCA (bicinchoninic acid) reagent was added to each well to assay total cellular protein according to standard methods.

[2] = test system: central benzodiazepine receptor (BZD); test: Binding to central benzodiazepine receptor, [3H]flunitrazepam displacement on rat cerebral cortex membranes
Description: Affinity of the compounds of the invention to the central benzodiazepine receptor (BZD) was measured by determining the binding of 0.4 nM [^3H]flunitrazepam to rat cerebral cortex membranes, and its displacement by compounds of the invention as compared to the reference ligand diazepam, at 4° C. for 60 min, as described by R. C. Speth et al., Life Sci. 24:351-358 (1979).
The specific binding to the receptors is defined as the difference between the total binding and the non-specific binding determined in the presence of an excess of unlabeled ligand (diazepam). The results are expressed as a percent of control specific binding ((measured specific binding/control specific binding)×100) obtained in the presence of compound 5, 6 and 7.
In each experiment, the respective reference compound was tested concurrently with compound 5, 6 and 7 in order to assess the assay suitability. It was tested at several concentrations (for IC50 value determination).

[3] = molecular target: platelet activating factor (PAF) (Homo sapiens, UniProt P25105); conditions: known related thienotriazolodiazepine; cited from earlier work
[4] = 10^−6 M, 0.4 nM [3H]flunitrazepam
[5] = 10^−7 M, 0.4 nM [3H]flunitrazepam
[6] = 10^−8 M, 0.4 nM [3H]flunitrazepam
[7] = 10^−9 M, 0.4 nM [3H]flunitrazepam

Chain of platelet activating factor (PAF) (P25105 whole entry): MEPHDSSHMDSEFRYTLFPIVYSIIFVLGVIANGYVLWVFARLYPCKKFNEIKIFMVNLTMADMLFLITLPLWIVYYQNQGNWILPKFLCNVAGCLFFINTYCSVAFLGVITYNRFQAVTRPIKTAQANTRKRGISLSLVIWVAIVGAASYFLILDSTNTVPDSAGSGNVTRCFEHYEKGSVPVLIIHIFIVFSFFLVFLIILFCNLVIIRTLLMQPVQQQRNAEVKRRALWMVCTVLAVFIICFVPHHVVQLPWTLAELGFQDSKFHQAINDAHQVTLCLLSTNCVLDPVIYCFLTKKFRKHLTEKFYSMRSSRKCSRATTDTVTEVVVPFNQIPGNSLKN

Row | Structure (SMILES) | Apo A1 (ng secreted per mg cell protein), 1st ([1]; 3 μM) | Apo A1 (ng secreted per mg cell protein), 2nd ([1]; 3 μM) | Apo A1 (ng secreted per mg cell protein), mean ([1]; 3 μM) | Apo A1 (ng secreted per mg cell protein), 1st ([1]; 10 μM) | Apo A1 (ng secreted per mg cell protein), 2nd ([1]; 10 μM) | Apo A1 (ng secreted per mg cell protein), mean ([1]; 10 μM) | Apo A1 (ng secreted per mg cell protein), 1st ([1]; 30 μM) | Apo A1 (ng secreted per mg cell protein), 2nd ([1]; 30 μM) | Apo A1 (ng secreted per mg cell protein), mean ([1]; 30 μM) | Apo A1 (ng secreted per mg cell protein), 1st ([1]; 100 μM) | Apo A1 (ng secreted per mg cell protein), 2nd ([1]; 100 μM) | Apo A1 (ng secreted per mg cell protein), mean ([1]; 100 μM) | Stimulation of apo A1 secretion versus control level (in words) [1] | Affinity to the benzodiazepine receptor (in words) [2] | % of control specific binding, 1st [2, 4] | % of control specific binding, 2nd [2, 4] | % of control specific binding, mean [2, 4] | % of control specific binding, 1st [2, 5] | % of control specific binding, 2nd [2, 5] | % of control specific binding, mean [2, 5] | other results
1 | Cc1nnc2n1-c1sccc1C(c1ccc3c(c1)OCO3)=NC2 [compound 6, 4-(3′,4′-Methylenedioxyphenyl)-9-methyl-6H-thieno[3,2-f]-s-triazolo[4,3-a][1,4]diazepine] | 144 ng secreted per mg cell protein | 160 ng secreted per mg cell protein | 152 ng secreted per mg cell protein | 186 ng secreted per mg cell protein | 212 ng secreted per mg cell protein | 199 ng secreted per mg cell protein | 290 ng secreted per mg cell protein | 293 ng secreted per mg cell protein | 292 ng secreted per mg cell protein | 397 ng secreted per mg cell protein | 276 ng secreted per mg cell protein | 336 ng secreted per mg cell protein | stimulated secetion of apo A1 above the control level | no significant affinity | 88.7 % of control specific binding | 100.5 % of control specific binding | 94.6 % of control specific binding | 104.1 % of control specific binding | 101.3 % of control specific binding | 102.7 % of control specific binding | % of control specific binding, 1st [2, 6]: 92.7 % of control specific binding; % of control specific binding, 2nd [2, 6]: 91.0 % of control specific binding; % of control specific binding, mean [2, 6]: 91.9 % of control specific binding; % of control specific binding, 1st [2, 7]: 110.1 % of control specific binding; % of control specific binding, 2nd [2, 7]: 83.2 % of control specific binding; % of control specific binding, mean [2, 7]: 96.7 % of control specific binding
2 | Cc1nnc2n1-c1sccc1C(c1ccccc1)=NC2(C)C [compound 5, 6,6-Dimethyl-4-phenyl-9-methyl-6H-thieno[3,2f]-s-triazolo[4,3-a][1,4]diazepine] | 247 ng secreted per mg cell protein | 124 ng secreted per mg cell protein | 185 ng secreted per mg cell protein | 274 ng secreted per mg cell protein | 156 ng secreted per mg cell protein | 215 ng secreted per mg cell protein | 219 ng secreted per mg cell protein | 227 ng secreted per mg cell protein | 223 ng secreted per mg cell protein | 273 ng secreted per mg cell protein | 277 ng secreted per mg cell protein | 275 ng secreted per mg cell protein | stimulated secetion of apo A1 above the control level | no significant affinity | 90.0 % of control specific binding | 100.4 % of control specific binding | 95.2 % of control specific binding | 91.5 % of control specific binding | 96.7 % of control specific binding | 94.1 % of control specific binding | % of control specific binding, 1st [2, 6]: 102.0 % of control specific binding; % of control specific binding, 2nd [2, 6]: 94.3 % of control specific binding; % of control specific binding, mean [2, 6]: 98.2 % of control specific binding; % of control specific binding, 1st [2, 7]: 88.9 % of control specific binding; % of control specific binding, 2nd [2, 7]: 104.6 % of control specific binding; % of control specific binding, mean [2, 7]: 96.8 % of control specific binding
3 | Cc1nnc2n1-c1sc(CCC(=O)N3CCOCC3)cc1C(c1ccccc1Cl)=NC2 [WEB2086] |  |  |  |  |  |  |  |  |  |  |  |  |  |  |  |  |  |  |  |  | PAF antagonistic activity (in words) [3]: platelet activating factor (PAF) antagonistic activity
4 | CN1C(=O)CN=C(c2ccccc2)c2cc(Cl)ccc21 [diazepam, reference compound] |  |  |  |  |  |  |  |  |  |  |  |  |  |  |  |  |  |  |  |  | IC50 ([2]; 0.4 nM [3H]flunitrazepam, 4° C., 60 min, read-out: IC50 of reference ligand in BZD binding assay): 16 nM
